Data published in publication PMC6268361, “Development and Validation of a Bioanalytical Method for Quantification of 2,6-Bis-(4-hydroxy-3-methoxybenzylidene)-cyclohexanone (BHMC) in Rat Plasma” (Molecules, 2012).

Experiments:
[1] = parameters: method as in PMID 19110321, PMID 14997198, PMID 17400527, PMID 17999464; conditions: cited from earlier work
[2] = Pharmacokinetic study in rats after i.v. administration (HPLC-UV/VIS of plasma, non-compartmental analysis); assay type: in vivo, male Sprague Dawley rats; conditions: i.v. 10 mg/kg
Protocol: Samples were analyzed with a Flexar HPLC system that consisted of a UV/VIS detector, a quaternary pump and a solvent manager with built-in degasser (PerkinElmer, Waltham, MA, USA). The separation was achieved using a Waters Symmetry C18 column (150 × 4.6 mm I.D.; 5 µm; Waters, Milford, MA, USA) protected by a Waters Symmetry C18 Guard Column (20 × 3.9 mm I.D.; 5 µm; Waters, Milford, MA, USA) at ambient temperature. The system’s pump delivered a constant flow of 1 mL/min. The volume of injection was 50 µL. BHMC and IS were eluted with a gradient method that gave an initial flow of 100% water for 1 min, changing linearly to 100% methanol in 11 min. Pure methanol was pumped continuously for 9 min. After this, 100% water was regained to stabilize the chromatographic system for 6 min. BHMC and IS were detected at a visible range of 380 nm. The analyses were repeated according to the gradient elution at every analytical cycle. The chromatograms were analyzed with Chromera Manager 2.1 (PerkinElmer, Waltham, MA, USA).
Plasma samples (200 µL) were pipetted into 1.5 mL microcentrifuge tubes. To each tube, deionized water (80 µL) was added and the tubes vortexed at medium speed for 20 s. Next, IS (62.5 µg/mL, 40 µL) was added and the mixtures vortexed again at medium speed for 20 s. A volume of 500 µL extraction reagent (95% ethyl acetate, 5% methanol) was loaded into each tube followed by a 60 s sonication and high speed vortexing for 60 s. The tubes were allowed to settle for 5 min followed by centrifugation at 13,500 g for 5 min at a temperature of 15 °C. After centrifugation the upper organic layer was carefully removed into another clean microcentrifuge tube. The organic layer was dried under a stream of nitrogen gas with a low heat setting. The dried extracted product was resuspended in 200 µL of a solution consisting of 10% methanol and 90% deionized water, sonicated for 60 s then vortexed at medium speed for 30 s. The tubes were left at room temperature in the dark for at least 10 min, followed by a repeat vortex mixing. The content was then filtered with 0.45 µm PTFE syringe filters (Titan, West Springfield, MA, USA) into a clean HPLC injection sample vial for HPLC assay.
Experiments was conducted on male Sprague Dawley rats (8–10 weeks old, 180–200 g) supplied by the Faculty of Veterinary Medicine, Universiti Putra Malaysia. All rats were housed at 23 ± 2 °C with 12 h of light/dark cycle with access to food and water ad libitum. They were acclimatized and habituated to the laboratory condition for at least one week prior to experimentation and were used only once throughout the experiments. All experimental protocols involving animals were performed in accordance with the current guidelines for the care of laboratory animals and the ethical guidelines for animal experimentation Animal Care and Use Committee (ACUC) as approved by the Animal Experimentation Ethics Committee of Universiti Putra Malaysia. Six rats were used. BHMC, solubilized in 5% ethanol (Thermo Fisher Scientific, Waltham, MA, USA), 5% Tween-20 (Sigma-Aldrich, St. Louis, MO, USA) and 90% deionized water, was injected intravenously to each rat at a dose of 10 mg/kg body weight. Blood samples (0.5 mL) were obtained from the tail vein at 5, 15, 30, 60, 120, 240, 480 and 720 min following BHMC administration. In order to prevent coagulation and enable plasma collection 1 µg of heparin sodium was added to each blood sample. Each sample was immediately centrifuged at 3,000 g for 10 min and the plasma was processed as described under sample preparation section. Pharmacokinetic parameters were estimated using non-compartmental pharmacokinetic analysis.

[3] = test system: cellular synthesis of nitric oxide and several proinflammatory cytokines; parameters: method as in PMID 19958764, PMID 21114991; conditions: through inhibition of signaling pathways incl. phosphorylation of p38 MAPK; cited from earlier work
[4] = test system: lethal sepsis in mice; parameters: method as in PMID 21114991; conditions: compared with curcumin; cited from earlier work
[5] = test system: mouse model of inflammatory pain; parameters: method as in PMID 12609665; conditions: cited from earlier work
[6] = male, Sprague Dawley, rat, plasma, iv, n = 6, mean ± SD, non-compartmental analysis

Row | SMILES | Bioavailability via oral administration [1] | Time post-treatment up to which quantifiable in plasma of all rats ([2]; LOQ 0.02 µg/mL) | AUC(0-inf) [2, 6] [ng·h/mL] | AUC(0-t) [2, 6] [ng·h/mL] | clearance ([2]; male, Sprague Dawley, rat, plasma, iv, n = 6, mean ± SD, non-compartmental analysis, read-out: Cl (clearance)) [mL/min] | Cmax ([2]; male, Sprague Dawley, rat, plasma, iv, n = 6, mean ± SD, non-compartmental analysis, read-out: Cmax (maximum plasma concentration)) [ng/mL] | half-life ([2]; male, Sprague Dawley, rat, plasma, iv, n = 6, mean ± SD, non-compartmental analysis, read-out: T1/2 (half-life)) [h] | Vd ([2]; male, Sprague Dawley, rat, plasma, iv, n = 6, mean ± SD, non-compartmental analysis, read-out: Vd (volume of distribution)) [L] | Effect on cellular synthesis of nitric oxide and several proinflammatory cytokines [3] | Reduction of mortality following severe sepsis [4] | Analgesic effect [5]
1 | COc1cc(C=CC(=O)CC(=O)C=Cc2ccc(O)c(OC)c2)ccc1O [Curcumin, 1,7-bis(4-hydroxy-3-methoxyphenyl)-1,6-heptadiene-3,5-dione] | low bioavailability |  |  |  |  |  |  |  |  |  | 
2 | COc1cc(C=C2CCCC(=Cc3ccc(O)c(OC)c3)C2=O)ccc1O [BHMC, 2,6-bis-(4-hydroxy-3-methoxybenzylidene)-cyclohexanone] |  | at least 8 h | 989 | 937 | 5.3 ± 0.7 | 2910 ± 150 | 1.5 ± 0.124 | 0.69 ± 0.038 | significant inhibitory effects | superior to curcumin in reducing mortality | potential analgesic effect
